“And” between values parts separate entries of the source, which are not always exact repeats. Equal values may be shown once. Toxic doses and inconclusive results are not listed.
Tested on: P388 leukemia ip, CD2F1 mice, survival T/C
Experiment: NCI In Vivo Anticancer Drug Screen. Data for tumor model P388 Leukemia (intraperitoneal) in CD2F1 (CDF1) mice
Details: endpoint: median survival time, higher = longer survival
In short: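 Mice carrying the transplanted tumor received test compound or vehicle. Survival was recorded in each group, and the value is the treated-group measurement divided by that of the vehicle-treated control group.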

[1] = dose: 50.0 mg/kg/injection, schedule: Q01DX005 (ip), vehicle: Klucel (hydroxypropylcellulose) (HPC)
[2] = dose: 100.0 mg/kg/injection, schedule: Q01DX005 (ip), vehicle: Klucel (hydroxypropylcellulose) (HPC)
[3] = dose: 200.0 mg/kg/injection, schedule: Q01DX005 (ip), vehicle: Klucel (hydroxypropylcellulose) (HPC)
[4] = dose: 25.0 mg/kg/injection, schedule: Q01DX009 (ip), vehicle: saline
[5] = dose: 50.0 mg/kg/injection, schedule: Q01DX009 (ip), vehicle: saline
[6] = dose: 100.0 mg/kg/injection, schedule: Q01DX009 (ip), vehicle: saline
[7] = dose: 200.0 mg/kg/injection, schedule: Q01DX009 (ip), vehicle: saline
[8] = dose: 50.0 mg/kg/injection, schedule: Q04DX003 (ip), vehicle: saline with Tween-80
[9] = dose: 60.0 mg/kg/injection, schedule: Q01DX005 (ip), vehicle: saline with Tween-80
[10] = dose: 120.0 mg/kg/injection, schedule: Q01DX005 (ip), vehicle: saline with Tween-80
[11] = dose: 240.0 mg/kg/injection, schedule: Q01DX005 (ip), vehicle: saline with Tween-80
[12] = dose: 60.0 mg/kg/injection, schedule: Q01DX005 (ip), vehicle: Klucel (hydroxypropylcellulose) (HPC)
[13] = dose: 120.0 mg/kg/injection, schedule: Q01DX005 (ip), vehicle: Klucel (hydroxypropylcellulose) (HPC)

[N-]=[N+]=NC1(N=[N+]=[N-])C(=O)Nc2ccccc2C1=O (centres undefined)
T/C [1]: 93 % of control | T/C [2]: 103 % of control | T/C [3]: 107 % of control

Oc1ccc(C(O)C2CCCCN2)cc1O (centres undefined)
T/C [4]: 99 % of control | T/C [5]: 108 % of control | T/C [6]: 103 % of control | T/C [7]: 108 % of control

CC(CN=C(CC(=O)C(F)(F)F)C(F)(F)F)N=C(CC(=O)C(F)(F)F)C(F)(F)F.[Ni] (centres undefined)
T/C (dose: 100.0 mg/kg/injection, schedule: Q04DX002 (ip), vehicle: saline with Tween-80): 98 % of control | T/C (dose: 200.0 mg/kg/injection, schedule: Q04DX002 (ip), vehicle: saline with Tween-80): 98 % of control | T/C (dose: 400.0 mg/kg/injection, schedule: Q04DX002 (ip), vehicle: saline with Tween-80): 93 % of control

COc1ccc(/C=C/c2cc(OC)cc(=O)o2)cc1
T/C (dose: 12.5 mg/kg/injection, schedule: Q04DX003 (ip), vehicle: saline with Tween-80): 100 % of control | T/C (dose: 25.0 mg/kg/injection, schedule: Q04DX003 (ip), vehicle: saline with Tween-80): 99 % of control | T/C [8]: 100 % of control | T/C (dose: 100.0 mg/kg/injection, schedule: Q04DX003 (ip), vehicle: saline with Tween-80): 100 % of control

COc1cc2c(c(OC)c1OC)-c1ccc(=O)c(OC)cc1[C@@H](N(C)C)CC2
T/C (dose: 2.5 mg/kg/injection, schedule: Q01DX009 (ip), vehicle: Klucel (hydroxypropylcellulose) (HPC)): 100 % of control | T/C (dose: 5.0 mg/kg/injection, schedule: Q01DX009 (ip), vehicle: Klucel (hydroxypropylcellulose) (HPC)): 106 % of control | T/C (dose: 10.0 mg/kg/injection, schedule: Q01DX009 (ip), vehicle: Klucel (hydroxypropylcellulose) (HPC)): 107 % of control | T/C (dose: 20.0 mg/kg/injection, schedule: Q01DX009 (ip), vehicle: Klucel (hydroxypropylcellulose) (HPC)): 110 % of control | T/C (dose: 40.0 mg/kg/injection, schedule: Q01DX009 (ip), vehicle: Klucel (hydroxypropylcellulose) (HPC)): 110 % of control

COc1ccc(CCNC(=O)C(Sc2ccccn2)c2ccccc2)cc1OC (centres undefined)
T/C [1]: 94 % of control | T/C [2]: 103 % of control | T/C [3]: 98 % of control

CCCCC(=O)N/N=C(\C)[C@]1(O)Cc2c(O)c3c(c(O)c2[C@@H](OC2CC(N)C(O)C(C)O2)C1)C(=O)c1c(OC)cccc1C3=O (some centres undefined)
T/C (dose: 0.12 mg/kg/injection, schedule: Q01DX009 (ip), vehicle: water): 117 % of control | T/C (dose: 0.25 mg/kg/injection, schedule: Q01DX009 (ip), vehicle: water): 122 % of control | T/C (dose: 0.5 mg/kg/injection, schedule: Q01DX009 (ip), vehicle: water): 155 % of control | T/C (dose: 1.0 mg/kg/injection, schedule: Q01DX009 (ip), vehicle: water): 190 % of control | T/C (dose: 2.0 mg/kg/injection, schedule: Q01DX009 (ip), vehicle: water): 180 % of control and 190 % of control | T/C (dose: 4.0 mg/kg/injection, schedule: Q01DX009 (ip), vehicle: water): 195 % of control and 238 % of control | T/C (dose: 8.0 mg/kg/injection, schedule: Q01DX009 (ip), vehicle: water): 152 % of control and 247 % of control

N#C/C(=C\c1c2ccccc2c(Cl)c2ccccc12)C(N)=S
T/C (dose: 6.25 mg/kg/injection, schedule: Q01DX009 (ip), vehicle: saline): 90 % of control | T/C (dose: 12.5 mg/kg/injection, schedule: Q01DX009 (ip), vehicle: saline): 88 % of control | T/C [4]: 90 % of control | T/C [5]: 92 % of control | T/C [6]: 97 % of control | T/C [7]: 103 % of control

COC1/C=C/OC2(C)Oc3c(C)c(O)c4c(O)c(c(/C=N/N5C(C)CN(Cc6cccc(O)c6)CC5C)c(O)c4c3C2=O)NC(=O)/C(C)=C\C=C\C(C)C(O)C(C)C(O)C(C)C(OC(C)=O)C1C (centres undefined)
T/C (dose: 50.0 mg/kg/injection, schedule: Q01DX009 (ip), vehicle: saline with Tween-80): 102 % of control | T/C (dose: 100.0 mg/kg/injection, schedule: Q01DX009 (ip), vehicle: saline with Tween-80): 100 % of control | T/C (dose: 200.0 mg/kg/injection, schedule: Q01DX009 (ip), vehicle: saline with Tween-80): 118 % of control

C1CCC2=NCCCN2CC1
T/C (dose: 6.25 mg/kg/injection, schedule: Q01DX009 (ip), vehicle: Klucel (hydroxypropylcellulose) (HPC)): 107 % of control | T/C (dose: 12.5 mg/kg/injection, schedule: Q01DX009 (ip), vehicle: Klucel (hydroxypropylcellulose) (HPC)): 103 % of control | T/C (dose: 25.0 mg/kg/injection, schedule: Q01DX009 (ip), vehicle: Klucel (hydroxypropylcellulose) (HPC)): 105 % of control

O=C(NC(Cc1ccc(Br)cc1)C(=O)O)c1ccc(Br)cc1 (centres undefined)
T/C [1]: 104 % of control | T/C [2]: 101 % of control | T/C [3]: 104 % of control

CCS1=C(C(C)=O)C(=O)OC(C)C1 (centres undefined)
T/C (dose: 50.0 mg/kg/injection, schedule: Q01DX005 (ip), vehicle: saline): 100 % of control | T/C (dose: 100.0 mg/kg/injection, schedule: Q01DX005 (ip), vehicle: saline): 100 % of control | T/C (dose: 200.0 mg/kg/injection, schedule: Q01DX005 (ip), vehicle: saline): 106 % of control

O=C(NC12OC3CC(CC(C3)O1)O2)NC12OC3CC(CC(C3)O1)O2
T/C (dose: 100.0 mg/kg/injection, schedule: Q01DX001 (ip), vehicle: saline with Tween-80): 100 % of control | T/C (dose: 200.0 mg/kg/injection, schedule: Q01DX001 (ip), vehicle: saline with Tween-80): 100 % of control | T/C (dose: 400.0 mg/kg/injection, schedule: Q01DX001 (ip), vehicle: saline with Tween-80): 111 % of control

CC(=O)CC(=O)c1c(-c2ccccc2)[nH]c2ccccc12
T/C (dose: 25.0 mg/kg/injection, schedule: Q04DX003 (ip), vehicle: saline + alcohol): 100 % of control | T/C (dose: 50.0 mg/kg/injection, schedule: Q04DX003 (ip), vehicle: saline + alcohol): 102 % of control | T/C (dose: 100.0 mg/kg/injection, schedule: Q04DX003 (ip), vehicle: saline + alcohol): 107 % of control and 96 % of control

CCOC(=O)c1ccc(NC(=O)Nc2nc3ccc(OC)cc3s2)cc1
T/C (dose: 25.0 mg/kg/injection, schedule: Q01DX009 (ip), vehicle: distilled water + Tween-80): 91 % of control | T/C (dose: 50.0 mg/kg/injection, schedule: Q01DX009 (ip), vehicle: distilled water + Tween-80): 89 % of control | T/C (dose: 100.0 mg/kg/injection, schedule: Q01DX009 (ip), vehicle: distilled water + Tween-80): 91 % of control | T/C (dose: 200.0 mg/kg/injection, schedule: Q01DX009 (ip), vehicle: distilled water + Tween-80): 89 % of control | T/C (dose: 400.0 mg/kg/injection, schedule: Q01DX009 (ip), vehicle: distilled water + Tween-80): 89 % of control

CCOCCOC(=O)Nc1c(Cl)cccc1Cl
T/C [9]: 101 % of control | T/C [10]: 96 % of control | T/C [11]: 95 % of control

COC1(NS(=O)(=O)c2ccc(C)cc2)CC1
T/C [12]: 103 % of control | T/C [13]: 91 % of control

C1CCc2c(-c3n[nH]c4c3CCCC4)n[nH]c2C1
T/C [9]: 103 % of control | T/C [10]: 101 % of control | T/C [11]: 100 % of control

CSc1nc(SC)c2nc(SC)n(-c3ccccc3)c2n1
T/C (dose: 3.13 mg/kg/injection, schedule: Q01DX009 (ip), vehicle: saline with Tween-80): 102 % of control | T/C (dose: 6.25 mg/kg/injection, schedule: Q01DX009 (ip), vehicle: saline with Tween-80): 104 % of control | T/C (dose: 12.5 mg/kg/injection, schedule: Q01DX009 (ip), vehicle: saline with Tween-80): 101 % of control | T/C (dose: 25.0 mg/kg/injection, schedule: Q01DX009 (ip), vehicle: saline with Tween-80): 97 % of control

CCOC(=O)C(Cc1ccc(N(CCCl)CCCl)cc1)NP1(=O)NCCCO1 (centres undefined)
T/C (dose: 14.0 mg/kg/injection, schedule: Q04DX003 (ip), vehicle: saline with Tween-80): 186 % of control | T/C (dose: 22.0 mg/kg/injection, schedule: Q04DX003 (ip), vehicle: saline with Tween-80): 172 % of control | T/C (dose: 33.0 mg/kg/injection, schedule: Q04DX003 (ip), vehicle: saline with Tween-80): 218 % of control | T/C [8]: 240 % of control

O=C(O)C1Cc2c([nH]c3ccccc23)C(c2cccs2)N1 (centres undefined)
T/C [12]: 100 % of control | T/C [13]: 96 % of control | T/C (dose: 240.0 mg/kg/injection, schedule: Q01DX005 (ip), vehicle: Klucel (hydroxypropylcellulose) (HPC)): 97 % of control

Cc1cc2nc3c(=O)[nH]c(=O)nc-3n(CCOC(=O)CCC(=O)O)c2cc1C
T/C (dose: 100.0 mg/kg/injection, schedule: Q04DX003 (ip), vehicle: saline sonified): 104 % of control | T/C (dose: 200.0 mg/kg/injection, schedule: Q04DX003 (ip), vehicle: saline sonified): 114 % of control

— PubChem BioAssay AID330 (DTP/NCI, 2004)
